Laboratory results as given in ChEMBL document CHEMBL1201862, “PubChem BioAssay data set” (2004).
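Each compound was tested at five concentrations against cells in 96-well plates for 48 hours. GI50 is the concentration that inhibits growth by half.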 The source made the active and inactive calls. No stated cut-off is given here; in the data, active = GI50 up to about 1.1 µM and inactive = higher.

Experiments:
Test in all cases: NCI anticancer screen, dose series, 48 h
[1] = system: KM-20L2
[2] = system: HOP-18
[3] = system: DLD-1
[4] = system: XF498
[5] = system: LXFL 529
[6] = system: DMS-273
[7] = system: SNB-78
[8] = system: DMS-114
[9] = system: RXF 631

Structure (SMILES) | GI50 [1] | GI50 [2] | GI50 [3] | GI50 [4] | GI50 [5] | GI50 [6] | GI50 [7] | GI50 [8] | GI50 [9]
Nc1nc(O)c2c(ncn2CCO)n1 | > 100 µM (inactive) | > 100 µM (inactive) | > 100 µM (inactive) | > 100 µM (inactive) | > 100 µM (inactive) | > 100 µM (inactive) | > 100 µM (inactive) | – | –
Nc1ccn(C2CCC(CO)O2)c(=O)n1 (centres undefined) | > 100 µM (inactive) | 98.9 µM (inactive) | > 100 µM (inactive) | > 100 µM (inactive) | – | > 100 µM (inactive) | > 65.6 µM (inactive) | > 100 µM (inactive) | –
NC1=NS(=O)(=O)Nc2nc(-c3ccccc3)c(-c3ccccc3)nc21 | > 100 µM (inactive) | > 100 µM (inactive) | > 100 µM (inactive) | > 100 µM (inactive) | > 100 µM (inactive) | > 100 µM (inactive) | > 100 µM (inactive) | – | –
CCc1nc2c(O)ccc(O)c2nc1C | 18.6 µM (inactive) | 20.9 µM (inactive) | 2.9 µM (inactive) | 24.2 µM (inactive) | 4.97 µM (inactive) | 19.9 µM (inactive) | 27.8 µM (inactive) | 18.2 µM (inactive) | 19.1 µM (inactive)
O=C1C(Cl)C(c2cc(Br)ccc2O)N1n1cnc2ccccc2c1=O (centres undefined) | 22.2 µM (inactive) | 6.3 µM (inactive) | 15.6 µM (inactive) | 28.5 µM (inactive) | 17.1 µM (inactive) | 15.7 µM (inactive) | 30.9 µM (inactive) | 5.46 µM (inactive) | –
Cc1cc(NCCCCCCCCNc2cc(C)nc3cc(N)ccc23)c2ccc(N)cc2n1 | 19 µM (inactive) | – | 16.9 µM (inactive) | – | 11.3 µM (inactive) | 4.56 µM (inactive) | – | 3.35 µM (inactive) | –
CC(C)(Br)C(=O)C(Br)Br | 18 µM (inactive) | – | 1.77 µM (inactive) | 11.6 µM (inactive) | 2.23 µM (inactive) | 12.6 µM (inactive) | 5.06 µM (inactive) | 5.36 µM (inactive) | 14 µM (inactive)
Fc1ccc(C2SCc3nc4ccccc4n32)c(F)c1 (centres undefined) | > 100 µM (inactive) | > 100 µM (inactive) | 67.6 µM (inactive) | – | – | 38 µM (inactive) | 38.1 µM (inactive) | 31.8 µM (inactive) | 34.5 µM (inactive)
O=c1c2cccnc2ncn1CCN1CCCCC1 | > 100 µM (inactive) | – | > 100 µM (inactive) | > 100 µM (inactive) | > 100 µM (inactive) | > 100 µM (inactive) | > 100 µM (inactive) | > 100 µM (inactive) | –
CC(C)(C)c1cc2c3c(c1)C(C(F)(F)F)(C(F)(F)F)O[Te]3(C)OC2(C(F)(F)F)C(F)(F)F | > 100 µM (inactive) | > 100 µM (inactive) | > 100 µM (inactive) | > 100 µM (inactive) | > 100 µM (inactive) | > 100 µM (inactive) | > 100 µM (inactive) | > 100 µM (inactive) | –
Cn1ccc(=NS(=O)(=O)c2ccccc2)cc1 | > 100 µM (inactive) | 85.3 µM (inactive) | > 100 µM (inactive) | > 100 µM (inactive) | > 100 µM (inactive) | > 100 µM (inactive) | > 100 µM (inactive) | > 100 µM (inactive) | > 100 µM (inactive)
COC(=O)/C(C#N)=C1\CCc2ccccc21 | > 100 µM (inactive) | – | > 100 µM (inactive) | > 100 µM (inactive) | > 100 µM (inactive) | > 100 µM (inactive) | – | > 100 µM (inactive) | –
CC1NS(=O)(=O)N(C)C1=O (centres undefined) | – | – | > 100 µM (inactive) | > 100 µM (inactive) | > 100 µM (inactive) | > 100 µM (inactive) | > 100 µM (inactive) | > 100 µM (inactive) | > 100 µM (inactive)
CC(C(=O)c1ccc(O)cc1)C1(O)C(=O)Nc2c(Cl)cc(Cl)cc21 (centres undefined) | > 92.5 µM (inactive) | – | > 89.7 µM (inactive) | 23.6 µM (inactive) | 26.9 µM (inactive) | 70.5 µM (inactive) | 46.8 µM (inactive) | 13.9 µM (inactive) | > 84.9 µM (inactive)
Cc1ccc(C2(O)CC(c3ccc([N+](=O)[O-])o3)=NN2C(=O)COc2ccccc2Cl)cc1 (centres undefined) | 8.65 µM (inactive) | 20.6 µM (inactive) | 6.08 µM (inactive) | 16.9 µM (inactive) | 6.59 µM (inactive) | 12.9 µM (inactive) | 42.6 µM (inactive) | 12.8 µM (inactive) | 6.87 µM (inactive)
COC(=O)C(=C\Sc1ccccc1)/C=C/C(=O)OC(C)(C)C | 17.1 µM (inactive) | 16.2 µM (inactive) | 2.62 µM (inactive) | 15 µM (inactive) | 3.5 µM (inactive) | 11.9 µM (inactive) | 15.1 µM (inactive) | 11.2 µM (inactive) | –
C#CCNC(=O)NC(CCCCNC(=O)OCc1ccccc1)C(=O)OCc1ccccc1 (centres undefined) | > 100 µM (inactive) | 23 µM (inactive) | > 100 µM (inactive) | 19.3 µM (inactive) | > 100 µM (inactive) | > 100 µM (inactive) | 23.9 µM (inactive) | 40.7 µM (inactive) | –
CCOC(=O)C=C1CCC2(CC1)OCCO2 | > 100 µM (inactive) | > 100 µM (inactive) | > 100 µM (inactive) | > 100 µM (inactive) | > 100 µM (inactive) | – | – | – | > 100 µM (inactive)
COc1cc(CNc2cnc3cc(N)ccc3n2)cc(OC)c1OC | 14 µM (inactive) | 78.5 µM (inactive) | 58.1 µM (inactive) | 22.6 µM (inactive) | 34.9 µM (inactive) | 0.191 µM (active) | – | 18.8 µM (inactive) | –
COc1ccc2nc3c(C(=O)NCCN(C)C)cccc3nc2c1 | – | 27.7 µM (inactive) | – | – | – | 4.42 µM (inactive) | 7.16 µM (inactive) | 5.82 µM (inactive) | –
N#Cc1c2nc3ccccc3nc2n2ccccc12 | > 100 µM (inactive) | – | > 100 µM (inactive) | > 100 µM (inactive) | > 100 µM (inactive) | > 100 µM (inactive) | > 100 µM (inactive) | > 100 µM (inactive) | –
CCOC(=O)CN.CCOC(=O)Nc1ccc(S(=O)(=O)OC)cc1.CCOC(=O)Nc1ccc(S(=O)(=O)OC)cc1 | > 50 µM (inactive) | > 50 µM (inactive) | > 50 µM (inactive) | – | > 50 µM (inactive) | > 50 µM (inactive) | > 50 µM (inactive) | > 50 µM (inactive) | > 50 µM (inactive)
C#CCOCn1cnc2c(Sc3c([N+](=O)[O-])ncn3C)ncnc21 | > 100 µM (inactive) | – | > 100 µM (inactive) | > 100 µM (inactive) | 55.8 µM (inactive) | > 100 µM (inactive) | – | > 100 µM (inactive) | > 100 µM (inactive)
CC12OC3CC(O1)C1(C=O)C4CCC5(C)C(c6ccc(=O)oc6)CCC5(O)C4CCC1(C3)O2 (centres undefined) | 0.298 µM (active) | 0.252 µM (active) | 0.0995 µM (active) | – | 0.139 µM (active) | 0.0519 µM (active) | 0.131 µM (active) | 0.0414 µM (active) | –
Cc1ccc(O)c(C(=O)CCCC(=O)c2cc(C)ccc2O)c1 | > 100 µM (inactive) | > 100 µM (inactive) | > 100 µM (inactive) | > 100 µM (inactive) | > 100 µM (inactive) | 55.3 µM (inactive) | 55.8 µM (inactive) | 32.9 µM (inactive) | –
CC1=C(/C=C/C(C)=C/C=C/C(C)=C/C(=O)O)C(C)(C)CCC1 [TRETINOIN] | > 100 µM (inactive) | > 100 µM (inactive) | > 100 µM (inactive) | > 100 µM (inactive) | > 100 µM (inactive) | > 100 µM (inactive) | – | > 100 µM (inactive) | –
